From ChEMBL document CHEMBL6092160, “Discovery of novel third generation P-glycoprotein inhibitors bearing an azo moiety with MDR-reversing effect” (Eur J Med Chem, 2024)
Structures can show the parent of a compound that is named as a salt.

What was measured:
[1] = tested on: K562/A02; experiment: Cytotoxicity against human K562/A02 cells over expressing P-gp at 20 uM incubated for 72 hrs by CCK-8 assay; type: toxicity, cell-based; details: k562/a02, 72 h
[2] = tested on: K562/A02; experiment: Reversal of multi-drug resistance in human K562/A02 cells assessed as decrease in adriamycin IC50 preincubated with compound followed by ADR addition for 48 hrs; type: functional, cell-based
[3] = target: T1, ATP-dependent translocase ABCB1 (Homo sapiens, UniProt P08183); experiment: Inhibition of P-glycoprotein in human K562/A02 cells assessed as accumulation of rhodamine incubated for 4 hrs by flow cytometric analysis; type: cell-based; details: k562/a02, 4 h, at 0.5 to 8 µM, dose 0.5-8 µM
[4] = target: T1, ATP-dependent translocase ABCB1; experiment: Induction of thermal stabilization of P-glycoprotein in human K562/A02 cells at 50 uM under 25 to 61 degreeC incubated for 1 hrs by CETSA based Western blot analysis; type: cell-based; details: k562/a02, 1 h
[5] = tested on: K562/A02; experiment: Effect on P-glycoprotein expression at mRNA level in human K562/A02 cells at 0.5 to 8.0 uM by q-PCR analysis; type: functional, cell-based; details: dose 0.5-8 µM
[6] = tested on: K562/A02; experiment: Effect on P-glycoprotein expression at protein level in human K562/A02 cells at 0.5 to 8.0 uM incubated for 24 hrs by Western blot analysis; type: functional, cell-based; details: dose 0.5-8 µM
[7] = tested on: K562/A02; experiment: Antiproliferative activity against human K562/A02 cells assessed as reduction in cell viability incubated for 72 hrs by CCK-8 assay; type: functional, cell-based; details: K562/A02, 72 h

T1 sequence (P08183 whole entry): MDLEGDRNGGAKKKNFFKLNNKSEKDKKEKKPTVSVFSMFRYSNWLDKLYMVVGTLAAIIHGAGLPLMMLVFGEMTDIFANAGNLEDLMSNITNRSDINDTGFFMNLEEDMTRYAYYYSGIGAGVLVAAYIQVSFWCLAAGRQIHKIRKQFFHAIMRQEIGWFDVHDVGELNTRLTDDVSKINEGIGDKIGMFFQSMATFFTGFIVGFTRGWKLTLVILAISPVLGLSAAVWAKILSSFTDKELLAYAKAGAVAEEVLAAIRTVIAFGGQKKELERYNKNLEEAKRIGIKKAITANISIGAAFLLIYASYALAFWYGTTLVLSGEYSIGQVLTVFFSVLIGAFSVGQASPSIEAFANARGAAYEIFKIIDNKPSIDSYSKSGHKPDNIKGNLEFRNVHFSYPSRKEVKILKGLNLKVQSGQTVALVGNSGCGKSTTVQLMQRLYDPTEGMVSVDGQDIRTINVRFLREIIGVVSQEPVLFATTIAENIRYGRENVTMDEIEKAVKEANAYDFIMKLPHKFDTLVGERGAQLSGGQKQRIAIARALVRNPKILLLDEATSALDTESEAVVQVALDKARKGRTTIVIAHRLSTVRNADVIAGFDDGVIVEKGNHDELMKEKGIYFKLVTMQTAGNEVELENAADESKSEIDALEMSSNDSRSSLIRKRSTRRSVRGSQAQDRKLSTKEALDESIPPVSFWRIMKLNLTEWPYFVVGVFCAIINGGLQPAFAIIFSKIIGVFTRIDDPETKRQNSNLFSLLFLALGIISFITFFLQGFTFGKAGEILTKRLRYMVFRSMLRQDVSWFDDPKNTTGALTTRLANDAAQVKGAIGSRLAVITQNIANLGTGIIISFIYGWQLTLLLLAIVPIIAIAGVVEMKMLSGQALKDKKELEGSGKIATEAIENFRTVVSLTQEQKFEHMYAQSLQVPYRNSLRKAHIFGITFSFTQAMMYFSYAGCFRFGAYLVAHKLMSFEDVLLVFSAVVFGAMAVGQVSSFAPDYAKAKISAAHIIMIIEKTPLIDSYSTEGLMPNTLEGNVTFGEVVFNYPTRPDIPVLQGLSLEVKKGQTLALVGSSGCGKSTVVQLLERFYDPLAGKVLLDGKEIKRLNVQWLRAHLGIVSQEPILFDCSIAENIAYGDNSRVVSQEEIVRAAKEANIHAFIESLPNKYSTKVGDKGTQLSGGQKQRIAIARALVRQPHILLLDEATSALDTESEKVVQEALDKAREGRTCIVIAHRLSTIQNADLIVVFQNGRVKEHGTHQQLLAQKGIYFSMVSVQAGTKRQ

**Q.** COc1ccccc1/N=N/c1ccccc1C(=O)Nc1ccc(CCN2CCc3cc(OC)c(OC)cc3C2)cc1 was tested. Which Activity [1] did it give?
**A.** Its Activity is “Non-toxic”.

**Q.** For COc1cc2c(cc1OC)CN(CCc1ccc(/N=N/c3ccccc3NC(=O)c3ccc(C(C)(C)C)cc3)cc1)CC2, which Activity [1] is on record?
**A.** The Activity was “Non-toxic”.

**Q.** Which EC50 [2] does the source give for COc1ccc(C(=O)Nc2ccccc2C(=O)Nc2ccc(CCN3CCc4cc(OC)c(OC)cc4C3)cc2)cc1OC here?
**A.** The EC50 was 29.4 nM.

**Q.** Which Activity [1] does the source give for COc1cc2c(cc1OC)CN(CCc1ccc(NC(=O)c3ccccc3/N=N/c3ccc(C)cc3)cc1)CC2 here?
**A.** The Activity was “Non-toxic”.

**Q.** For COc1cc2c(cc1OC)CN(CCc1ccc(/N=N/c3ccccc3NC(=O)c3ccc(C)c(C)c3)cc1)CC2, which Activity [1] is on record?
**A.** Its Activity is “Non-toxic”.

**Q.** How did the Activity [1] turn out when COc1cc2c(cc1OC)CN(CCc1ccc(/N=N/c3ccccc3NC(=O)c3ccc(Cl)cc3)cc1)CC2 was run?
**A.** The Activity was “Non-toxic”.

**Q.** COc1cc2c(cc1OC)CN(CCc1ccc(/N=N/c3ccccc3NC(=O)c3cc(OC)c(OC)c(OC)c3)cc1)CC2 was tested. Which Activity [1] did it give?
**A.** Its Activity is “Non-toxic”.

**Q.** For COc1cc2c(cc1OC)CN(CCc1ccc(/N=N/c3ccccc3NC(=O)c3ccccc3)cc1)CC2, which Activity [1] is on record?
**A.** The Activity was “Non-toxic”.

**Q.** With COc1cc2c(cc1OC)CN(CCc1ccc(/N=N/c3ccccc3NC(=O)c3ccc([N+](=O)[O-])cc3)cc1)CC2 as the compound, how does the Activity [1] read?
**A.** The Activity was “Non-toxic”.

**Q.** With COc1cc2c(cc1OC)CN(CCc1ccc(/N=N/c3ccccc3NC(=O)c3cccc([N+](=O)[O-])c3)cc1)CC2 as the compound, how does the Activity [1] read?
**A.** The Activity was “Non-toxic”.

**Q.** With COc1cc2c(cc1OC)CN(CCc1ccc(NC(=O)c3ccccc3/N=N/c3ccc(Cl)cc3)cc1)CC2 as the compound, how does the Activity [1] read?
**A.** The Activity was “Non-toxic”.

**Q.** With COc1cc2c(cc1OC)CN(CCc1ccc(/N=N/c3ccccc3NC(=O)c3cccc(Cl)c3)cc1)CC2 as the compound, how does the Activity [1] read?
**A.** Its Activity is “Non-toxic”.

**Q.** Which EC50 [2] does the source give for COc1cc2c(cc1OC)CN(CCc1ccc(/N=N/c3ccccc3NC(=O)c3ccccc3OC)cc1)CC2 here?
**A.** The EC50 was 120 nM.

**Q.** What about the Activity [1] of the same compound?
**A.** The Activity was “Non-toxic”.

**Q.** And the “inhibition (INH)” value [3]?
**A.** Its value is “Dose-dependent-effect”.

**Q.** What about the Activity [4] of the same compound?
**A.** Its Activity is “Active”.

**Q.** What about the Activity [5] of the same compound?
**A.** The Activity was “Active; Little Effect Of Compound Observed”.

**Q.** And the Activity [6]?
**A.** Its Activity is “Active; Little Effect Of Compound Observed”.

**Q.** For COc1cc2c(cc1OC)CN(CCc1ccc(/N=N/c3ccccc3NC(=O)c3ccc(F)c(F)c3)cc1)CC2, which Activity [1] is on record?
**A.** The Activity was “Non-toxic”.

**Q.** How did the Activity [1] turn out when COc1cc2c(cc1OC)CN(CCc1ccc(/N=N/c3ccccc3NC(=O)c3ccccc3Cl)cc1)CC2 was run?
**A.** Its Activity is “Non-toxic”.

**Q.** COc1cc2c(cc1OC)CN(CCc1ccc(NC(=O)c3ccccc3/N=N/c3cccc(Cl)c3)cc1)CC2 was tested. Which Activity [1] did it give?
**A.** Its Activity is “Non-toxic”.

**Q.** For COc1cc2c(cc1OC)CN(CCc1ccc(/N=N/c3ccccc3NC(=O)c3ccccc3[N+](=O)[O-])cc1)CC2, which Activity [1] is on record?
**A.** The Activity was “Non-toxic”.

**Q.** How did the Activity [1] turn out when COc1cccc(C(=O)Nc2ccccc2/N=N/c2ccc(CCN3CCc4cc(OC)c(OC)cc4C3)cc2)c1 was run?
**A.** The Activity was “Non-toxic”.

**Q.** For COc1cc2c(cc1OC)CN(CCc1ccc(NC(=O)c3ccccc3/N=N/c3ccccc3)cc1)CC2, which Activity [1] is on record?
**A.** The Activity was “Non-toxic”.

**Q.** COc1cc2c(cc1OC)CN(CCc1ccc(/N=N/c3ccccc3NC(=O)c3ccc(Cl)c(Cl)c3)cc1)CC2 was tested. Which Activity [1] did it give?
**A.** Its Activity is “Non-toxic”.

**Q.** Which Activity [1] does the source give for COc1cc2c(cc1OC)CN(CCc1ccc(/N=N/c3ccccc3NC(=O)c3ccc(C)cc3)cc1)CC2 here?
**A.** Its Activity is “Non-toxic”.

**Q.** For COc1ccc(C(=O)Nc2ccccc2/N=N/c2ccc(CCN3CCc4cc(OC)c(OC)cc4C3)cc2)cc1, which Activity [1] is on record?
**A.** The Activity was “Non-toxic”.

**Q.** With COc1cccc2c1C(=O)c1c(O)c3c(c(O)c1C2=O)C[C@@](O)(C(=O)CO)C[C@@H]3O[C@H]1C[C@H](N)[C@H](O)[C@H](C)O1 [DOXORUBICIN HYDROCHLORIDE] as the compound, how does the IC50 [7] read?
**A.** Its IC50 is 2160 nM.

**Q.** With COc1ccc(C(=O)Nc2ccccc2/N=N/c2ccc(CCN3CCc4cc(OC)c(OC)cc4C3)cc2)cc1OC as the compound, how does the Activity [1] read?
**A.** Its Activity is “Non-toxic”.
